Measured values reported in paper PMC8429728, “TNK1 is a ubiquitin-binding and 14-3-3-regulated kinase that can be targeted to block tumor growth” (Nature Communications, 2021).
Where two headings read alike, the source gives them in different places.

Tests used:
Assay in all cases: biochemical
Set-up in all cases: Reaction Biology 371-kinase panel at Km ATP, per cent enzyme activity relative to DMSO, single dose in duplicate
[1] = target: IRR/INSRR (Homo sapiens, UniProt P14616); details: duplicate measurements, Km ATP
Outline: (§1)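 Compound screened at 300 nM in vitro across a 371-kinase panel. Enzyme activity expressed as % of DMSO controls. IC50 values came from sigmoidal variable-slope dose-response fits with the bottom fixed at 0.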

[2] = target: MARK1 (Homo sapiens, UniProt Q9P0L2); details: duplicate measurements, Km ATP
Outline: as §1

[3] = target: GLK/MAP4K3 (Homo sapiens, UniProt Q8IVH8); details: duplicate measurements, Km ATP
Outline: as §1

[4] = target: ROCK1 (Homo sapiens, UniProt Q13464); details: duplicate measurements, Km ATP
Outline: as §1

[5] = target: CDK7/cyclin H (Homo sapiens, UniProt P50613); details: duplicate measurements, Km ATP
Outline: as §1

[6] = target: NEK9 (Homo sapiens, UniProt Q8TD19); details: duplicate measurements, Km ATP
Outline: as §1

[7] = target: NLK (Homo sapiens, UniProt Q9UBE8); details: duplicate measurements, Km ATP
Outline: as §1

[8] = target: T1, CK1G3 (Homo sapiens, UniProt Q9Y6M4); details: duplicate measurements, Km ATP
T1 construct: gene CSNK1G3
Outline: as §1

[9] = target: AKT2 (Homo sapiens, UniProt P31751); details: duplicate measurements, Km ATP
Outline: as §1

[10] = target: SGK2 (Homo sapiens, UniProt Q9HBY8); details: duplicate measurements, Km ATP
Outline: as §1

[11] = target: T2, PKCg (Homo sapiens, UniProt P05129); details: duplicate measurements, Km ATP
T2 construct: gene PRKCG
Outline: as §1

[12] = target: ALK (Homo sapiens, UniProt Q9UM73); details: duplicate measurements, Km ATP
Outline: as §1

[13] = target: T3, RSK1 (Homo sapiens, UniProt Q15418); details: duplicate measurements, Km ATP
T3 construct: gene RPS6KA1
Outline: as §1

[14] = target: ALK5/TGFBR1 (Homo sapiens, UniProt P36897); details: duplicate measurements, Km ATP
Outline: as §1

[15] = target: SIK2 (Homo sapiens, UniProt Q9H0K1); details: duplicate measurements, Km ATP
Outline: as §1

[16] = target: T4, MEKK2 (Homo sapiens, UniProt Q9Y2U5); details: duplicate measurements, Km ATP
T4 construct: gene MAP3K2
Outline: as §1

[17] = target: c-Kit (Homo sapiens, UniProt P10721); details: duplicate measurements, Km ATP
Outline: as §1

[18] = target: LIMK2 (Homo sapiens, UniProt P53671); details: duplicate measurements, Km ATP
Outline: as §1

[19] = target: SNARK/NUAK2 (Homo sapiens, UniProt Q9H093); details: duplicate measurements, Km ATP; read-out: % Enzyme Activity (relative to DMSO controls) / TP-0005801 (0.3µM) / Data 1
Outline: as §1

[20] = target: T5, RSK4 (Homo sapiens, UniProt Q9UK32); details: duplicate measurements, Km ATP
T5 construct: gene RPS6KA6
Outline: as §1

[21] = read-out: % Enzyme Activity (relative to DMSO controls) / TP-0005801 (0.3µM) / Data 1
[22] = read-out: % Enzyme Activity (relative to DMSO controls) / TP-0005801 (0.3µM) / Data 2

T1 sequence (Q9Y6M4 whole entry): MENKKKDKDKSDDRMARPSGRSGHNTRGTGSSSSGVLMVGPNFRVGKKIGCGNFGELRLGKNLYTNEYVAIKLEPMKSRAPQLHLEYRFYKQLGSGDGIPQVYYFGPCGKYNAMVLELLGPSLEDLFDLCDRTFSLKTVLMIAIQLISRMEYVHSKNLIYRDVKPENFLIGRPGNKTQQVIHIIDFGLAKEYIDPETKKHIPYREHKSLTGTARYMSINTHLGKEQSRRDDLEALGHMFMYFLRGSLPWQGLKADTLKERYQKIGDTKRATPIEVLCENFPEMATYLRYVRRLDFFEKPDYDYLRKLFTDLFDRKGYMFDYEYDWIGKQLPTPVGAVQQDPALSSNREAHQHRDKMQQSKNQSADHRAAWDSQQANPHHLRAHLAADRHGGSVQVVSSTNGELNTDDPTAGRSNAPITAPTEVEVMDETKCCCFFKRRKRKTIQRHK
Chain of ALK5/TGFBR1 (P36897 whole entry): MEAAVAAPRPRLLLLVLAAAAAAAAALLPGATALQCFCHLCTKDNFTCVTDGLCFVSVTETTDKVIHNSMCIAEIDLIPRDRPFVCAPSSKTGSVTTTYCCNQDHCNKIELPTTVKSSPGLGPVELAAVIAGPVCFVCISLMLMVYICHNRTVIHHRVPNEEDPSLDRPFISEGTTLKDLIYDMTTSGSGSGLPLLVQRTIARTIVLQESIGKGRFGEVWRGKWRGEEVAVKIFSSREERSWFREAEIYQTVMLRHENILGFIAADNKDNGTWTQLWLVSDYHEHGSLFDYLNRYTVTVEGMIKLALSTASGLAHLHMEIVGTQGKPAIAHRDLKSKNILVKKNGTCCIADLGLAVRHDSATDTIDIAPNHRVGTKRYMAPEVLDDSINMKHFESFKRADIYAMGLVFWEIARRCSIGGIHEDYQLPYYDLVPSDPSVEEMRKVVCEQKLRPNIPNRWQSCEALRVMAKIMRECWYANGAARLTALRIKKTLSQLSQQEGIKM
Chain of AKT2 (P31751 whole entry): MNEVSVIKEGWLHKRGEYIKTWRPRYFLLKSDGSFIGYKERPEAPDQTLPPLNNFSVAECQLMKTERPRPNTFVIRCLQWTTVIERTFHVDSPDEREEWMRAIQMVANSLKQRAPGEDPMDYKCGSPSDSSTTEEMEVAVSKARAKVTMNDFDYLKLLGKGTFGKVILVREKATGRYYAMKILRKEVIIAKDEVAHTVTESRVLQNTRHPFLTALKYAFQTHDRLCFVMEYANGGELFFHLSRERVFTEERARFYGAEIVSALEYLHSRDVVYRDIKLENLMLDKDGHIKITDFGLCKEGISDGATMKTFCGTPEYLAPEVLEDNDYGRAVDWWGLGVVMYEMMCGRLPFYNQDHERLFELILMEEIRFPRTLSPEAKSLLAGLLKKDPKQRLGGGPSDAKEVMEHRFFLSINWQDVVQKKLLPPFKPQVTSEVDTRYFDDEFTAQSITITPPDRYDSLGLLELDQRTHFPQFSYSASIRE
Chain of NEK9 (Q8TD19 whole entry): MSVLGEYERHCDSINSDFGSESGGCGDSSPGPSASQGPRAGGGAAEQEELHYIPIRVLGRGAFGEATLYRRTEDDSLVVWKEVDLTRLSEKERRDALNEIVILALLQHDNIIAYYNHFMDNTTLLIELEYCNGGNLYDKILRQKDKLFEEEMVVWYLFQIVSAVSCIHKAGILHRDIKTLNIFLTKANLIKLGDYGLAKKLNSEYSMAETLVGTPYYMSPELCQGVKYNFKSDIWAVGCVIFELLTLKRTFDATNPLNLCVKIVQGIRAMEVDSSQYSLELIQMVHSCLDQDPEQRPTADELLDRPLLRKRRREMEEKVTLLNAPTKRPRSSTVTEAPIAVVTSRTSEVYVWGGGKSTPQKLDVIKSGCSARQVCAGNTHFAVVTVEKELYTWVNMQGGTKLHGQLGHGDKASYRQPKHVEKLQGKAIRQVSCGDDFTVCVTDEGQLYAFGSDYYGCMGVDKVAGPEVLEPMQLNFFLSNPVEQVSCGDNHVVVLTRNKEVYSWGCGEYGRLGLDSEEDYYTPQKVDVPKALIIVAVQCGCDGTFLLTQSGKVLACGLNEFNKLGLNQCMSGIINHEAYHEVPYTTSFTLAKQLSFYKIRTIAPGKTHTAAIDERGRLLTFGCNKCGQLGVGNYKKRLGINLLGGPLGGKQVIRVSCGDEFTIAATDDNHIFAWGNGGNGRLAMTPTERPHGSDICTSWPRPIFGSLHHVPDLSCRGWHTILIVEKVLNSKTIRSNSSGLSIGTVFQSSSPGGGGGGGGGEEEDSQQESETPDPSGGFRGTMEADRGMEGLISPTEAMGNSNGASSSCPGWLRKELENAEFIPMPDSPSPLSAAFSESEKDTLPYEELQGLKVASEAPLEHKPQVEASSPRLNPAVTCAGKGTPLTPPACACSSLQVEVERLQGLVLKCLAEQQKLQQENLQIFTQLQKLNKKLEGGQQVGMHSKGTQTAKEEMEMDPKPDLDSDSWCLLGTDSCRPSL
Chain of CDK7/cyclin H (P50613 whole entry): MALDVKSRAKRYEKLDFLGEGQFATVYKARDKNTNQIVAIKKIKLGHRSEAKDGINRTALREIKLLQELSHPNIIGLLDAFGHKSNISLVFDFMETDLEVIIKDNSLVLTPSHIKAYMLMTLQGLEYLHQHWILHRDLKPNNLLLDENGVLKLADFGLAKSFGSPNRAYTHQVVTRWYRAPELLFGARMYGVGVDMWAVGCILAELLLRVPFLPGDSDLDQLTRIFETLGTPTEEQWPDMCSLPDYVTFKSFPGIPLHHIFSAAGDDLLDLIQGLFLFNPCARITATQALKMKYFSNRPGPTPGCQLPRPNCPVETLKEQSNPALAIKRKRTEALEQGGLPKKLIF
Chain of CDK7/cyclin H (P51946 whole entry partner): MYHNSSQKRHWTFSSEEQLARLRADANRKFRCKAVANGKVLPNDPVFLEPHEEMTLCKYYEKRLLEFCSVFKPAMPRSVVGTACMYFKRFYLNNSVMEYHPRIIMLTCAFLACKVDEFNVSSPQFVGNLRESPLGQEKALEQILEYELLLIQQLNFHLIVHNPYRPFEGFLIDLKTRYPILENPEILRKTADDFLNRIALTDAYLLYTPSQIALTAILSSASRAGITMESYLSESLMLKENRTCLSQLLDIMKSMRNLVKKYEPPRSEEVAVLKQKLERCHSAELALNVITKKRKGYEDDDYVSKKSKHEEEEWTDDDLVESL
Chain of c-Kit (P10721 whole entry): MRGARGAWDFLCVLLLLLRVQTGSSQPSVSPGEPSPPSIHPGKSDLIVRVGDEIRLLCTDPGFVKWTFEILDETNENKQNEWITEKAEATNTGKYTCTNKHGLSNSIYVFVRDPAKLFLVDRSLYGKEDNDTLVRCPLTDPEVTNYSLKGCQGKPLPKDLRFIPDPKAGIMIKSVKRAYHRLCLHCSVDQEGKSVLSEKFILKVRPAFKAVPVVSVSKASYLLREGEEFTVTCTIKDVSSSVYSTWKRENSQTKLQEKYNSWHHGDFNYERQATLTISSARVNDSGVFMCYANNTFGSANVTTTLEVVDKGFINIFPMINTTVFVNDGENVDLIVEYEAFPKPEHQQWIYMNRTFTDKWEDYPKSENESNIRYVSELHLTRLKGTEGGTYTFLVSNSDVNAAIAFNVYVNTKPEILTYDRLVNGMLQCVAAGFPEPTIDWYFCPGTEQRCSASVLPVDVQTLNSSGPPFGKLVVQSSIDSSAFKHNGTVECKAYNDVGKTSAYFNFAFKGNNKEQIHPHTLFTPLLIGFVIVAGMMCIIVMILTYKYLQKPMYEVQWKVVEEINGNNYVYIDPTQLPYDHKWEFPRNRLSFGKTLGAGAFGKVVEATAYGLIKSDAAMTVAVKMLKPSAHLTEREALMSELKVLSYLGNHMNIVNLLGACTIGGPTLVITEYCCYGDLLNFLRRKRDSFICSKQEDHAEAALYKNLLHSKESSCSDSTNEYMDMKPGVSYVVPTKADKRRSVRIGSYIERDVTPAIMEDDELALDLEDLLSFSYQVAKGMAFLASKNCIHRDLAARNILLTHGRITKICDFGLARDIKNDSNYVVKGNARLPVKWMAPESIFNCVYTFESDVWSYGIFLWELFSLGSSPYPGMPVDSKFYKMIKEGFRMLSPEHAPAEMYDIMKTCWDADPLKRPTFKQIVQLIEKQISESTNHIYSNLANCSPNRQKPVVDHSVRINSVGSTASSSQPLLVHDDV

remaining activity at 0.3 µM [1, 21]: 66.7%
remaining activity at 0.3 µM [1, 22]: 65.2%
remaining activity at 0.3 µM [2, 21]: 101%
remaining activity at 0.3 µM [2, 22]: 99.2%
remaining activity at 0.3 µM [3, 21]: 35%
remaining activity at 0.3 µM [3, 22]: 34.3%
remaining activity at 0.3 µM [4, 21]: 99.8%
remaining activity at 0.3 µM [4, 22]: 96.7%
remaining activity at 0.3 µM [5, 21]: 103%
remaining activity at 0.3 µM [5, 22]: 101%
remaining activity at 0.3 µM [7, 21]: 92.3%
remaining activity at 0.3 µM [7, 22]: 85.8%
remaining activity at 0.3 µM [8, 21]: 94.7%
remaining activity at 0.3 µM [8, 22]: 93.6%
remaining activity at 0.3 µM [9, 21]: 100%
remaining activity at 0.3 µM [9, 22]: 99.9%
remaining activity at 0.3 µM [10, 21]: 93.7%
remaining activity at 0.3 µM [10, 22]: 92.7%
remaining activity at 0.3 µM [11, 21]: 115%
remaining activity at 0.3 µM [11, 22]: 107%
remaining activity at 0.3 µM [12, 21]: 3.64%
remaining activity at 0.3 µM [12, 22]: 3.52%
remaining activity at 0.3 µM [13, 21]: 76.2%
remaining activity at 0.3 µM [13, 22]: 74.2%
remaining activity at 0.3 µM [14, 21]: 88.1%
remaining activity at 0.3 µM [14, 22]: 88%
remaining activity at 0.3 µM [15, 21]: 79.4%
remaining activity at 0.3 µM [15, 22]: 78.3%
remaining activity at 0.3 µM [16, 21]: 86.8%
remaining activity at 0.3 µM [16, 22]: 81%
remaining activity at 0.3 µM [17, 21]: 85.3%
remaining activity at 0.3 µM [17, 22]: 85.1%
remaining activity at 0.3 µM [18, 21]: 114%
remaining activity at 0.3 µM [18, 22]: 108%
remaining activity at 0.3 µM [19]: 30.2%
remaining activity at 0.3 µM [20, 21]: 79.4%
remaining activity at 0.3 µM [20, 22]: 77.9%
Compound: COc1cc(N2CCN(C)CC2)c(C)cc1Nc1ncc(Br)c(Nc2cccnc2N(C)C)n1 [TP-5801]
remaining activity at 0.3 µM [6, 21]: 69.6%
remaining activity at 0.3 µM [6, 22]: 68.6%
